The assay concerns pregnant rats. The assay can be described thus: Time of delivery of timed-pregnant rats (hours after 8 a.m. of day 22 of gestation). In kind it is in vivo, Sprague-Dawley rats. To be noted: for delay of delivery compared to vehicle control: from day 13. An excerpt:
Nonpregnant and timed-pregnant Sprague-Dawley rats (200-250 g) from Charles-River Laboratories (Wilmington, Mass., USA) were delivered to animal care facilities on day 12 of gestation (day 1 being the day when a sperm plug was observed). The animals were housed separately, with free access to food and water and maintained on a constant 12-hour light-dark cycle. Control pregnant rats were spontaneously delivering on day 22 and 23 of gestation. For the measurements with the collascope the animals were anaesthetized (interperitoneal (i.p). injection) with a combination of xylazine (Gemini, Burns Veterinary Supply Inc, Rockville Center, N.Y., USA) and ketamine HCl (Ketaset; Fort Dodge Laboratories Inc, Fort Dodge, Iowa, USA). The animals were randomly allocated to one of the groups and sacrificed by carbon dioxide inhalation on day 3, 5, 7 and 10 postpartum or on day 25 of pregnancy in the groups with delayed delivery. All procedures were approved by the Animal Care and Use Committee of the St. Joseph's Hospital and Medical Center in Phoenix.
Prior to any treatment LIF measurements were made in control rats throughout pregnancy and postpartum to estimate the LIF profile during gestation (see FIG. 1). Pregnant rats (N=6/group) were treated (see FIG. 2), when not otherwise mentioned (see FIG. 3), from day 13 of pregnancy until delivery. Single daily treatments were performed at 8 a.m. and twice a day treatments at 8 a.m. and 8 p.m. All single injections (4 mg P4, 10 mg 17P, 2 mg promegestone (R5020)) were by the subcutaneous route (s.c.) in sesame oil (0.2 ml), which was also used for the controls. Vaginal gels were applied twice a day with a blunt ball-top needle deep into the vagina. Crinone was used for the P4 vaginal group (equivalent volumes of Crinone were used for 2-15 mg P4/treatment), all data presented show the results of the highest dose (total daily dose of 30 mg P4=⅓ of a applicator of 8% Crinone that contains 90 mg P4). For the vaginal promegestone (R5020) group micronized promegestone (R5020) (1 mg/treatment) was mixed into 0.18 ml of Replens. The control rats for the vaginal groups were treated with Replens (0.18 ml/treatment). For oral P4 treatments (15 mg, bid, vehicle sesame oil or H2O, volume 1 ml) gavage was used. For topical P4 treatment (15 mg, bid, P4 in 1 ml sesame oil, fish oil or in Replens) the drug was applied on the back of animals that were shaved on day 13, 17 and 21. In some animals (N=6) RU-486 (3 mg in 0.2 ml sesame oil) was injected subcutaneously once on day 16 of gestation.
Times of delivery (see also FIG. 4) of controls and various treatment groups were determined as hours after 8 a.m. of day 22 of gestation (FIG. 5). The expulsion of one pup was defined as delivery.
The cervical LIFs obtained at different times of gestation (FIG. 1) were compared using one-way analysis of variance (ANOVA) and multiple pairwise comparison procedures (Holm-Sidak). Student's t-test was used to compare the LIF results of a treatment group to its specific control group at any time in gestation and postpartum and also to determine the differences in delivery times (FIGS. 2, 3 and 5). A two-tailed probability value of P<0.05 was considered statistically significant.
FIG. 15 depicts delay of delivery times in timed pregnant rats treated with progesterone (P4) with different routes and vehicles. Treatment was started on day 13 of gestation and continued until delivery of pups or until delivery was blocked at […] (day 25) past day 22 of gestation. 8 am on day 22 is noted as hour 0 and delay is compared to control group treated only with vehicle. Treatment groups included: P4 in fish oil (vaginal, nasal, injection and topical groups), P4 in cocoa butter (rectal) and P4 in sesame oil (oral). All treatment groups received a total daily dose of 30 mg P4/day except the nasal and subcutaneous injection group which received 1 mg/day and 4 mg/day, respectively. […]

Structures are written as SMILES. “Also recorded” adds a separate entry of the source.

`CC(=O)[C@H]1CC[C@H]2[C@@H]3CCC4=CC(=O)CC[C@]4(C)[C@H]3CC[C@]12C` [P4, progesterone]: the “delay of delivery compared to controls” value is, setting by setting: (P4 30 mg/day in DHA (docosahexanoic acid) from day 20) “significant delays when compared to controls”; (P4 30 mg/day in EPA (eicosapentanoic acid) from day 20) “All treatment groups except EPA had significant delays”; (P4 30 mg/day in GNC Triple Strength fish oil from day 20) “significant delays when compared to controls”; (P4 30 mg/day in Neptune Krill Oil from day 20) “significant delays when compared to controls”; (P4 30 mg/day in Nutrasea fish oil from day 20) “significant delays when compared to controls”; (P4 30 mg/day in Nutrasea+D fish oil from day 20) “significant delays when compared to controls”. Under “P4 30 mg/day in Omegasorb GNC fish oil from day 20”, the “delay of delivery compared to controls” value is given as “complete block of delivery”. The delay of delivery entry runs as follows: (P4 in fish oil, s.c. or topical, all groups begun on days 19, 20, 21 or 22) “significant delay of delivery”; (topical P4 15 mg bid in Omegasorb fish oil from day 19) “significant delay of delivery”; (topical P4 15 mg bid in coconut oil from day 19) “significant delay of delivery”; (topical P4 15 mg bid in corn oil from day 19) “All groups but corn oil had significant delay of delivery”; (topical P4 15 mg bid in olive oil from day 19) “significant delay of delivery”. The block of delivery result (P4 in fish oil, subcutaneous injection begun on day 21) is listed as “complete block in all animals” and the block of delivery entry (P4 in fish oil, topical application begun on day 19) is reported as “complete block in all animals”. Also, the delivery result (P4 in fish oil, treatment begun just prior to delivery on day 22) is “blocked or significantly delayed”. Also, the effect on delivery entry was “Delivery was not changed; also recorded: no effect on time of delivery” (oral P4 15 mg bid by gavage in sesame oil or H2O from day 13); “inhibits delivery; also recorded: completely blocked delivery; also recorded: prevented delivery; also recorded: completely inhibited; also recorded: delivery is inhibited” (s.c. injection daily in sesame oil from day 13 (P4 4 mg, 17P 10 mg, R5020 2 mg)); “Delivery was not changed; also recorded: not at all” (topical P4 15 mg bid in Replens from day 13); “inhibits delivery; also recorded: completely” (topical P4 15 mg bid in fish oil from day 13); “inhibits delivery; also recorded: only partially” (topical P4 15 mg bid in sesame oil from day 13); “Delivery was not changed; also recorded: failed to inhibit delivery; also recorded: no effect on cervical ripening and on delivery; also recorded: no significant effect on delaying term delivery” (vaginal bid from day 13 (P4 15 mg as Crinone; R5020 1 mg in Replens)). Moreover, the “delay of delivery compared to vehicle control” value (rectal P4 in cocoa butter, 30 mg P4/day) is given as “significant delay of delivery”; the “delay of delivery compared to vehicle control” value (subcutaneous injection of P4 in fish oil, 4 mg/day) was “significant delay of delivery”; the “delay of delivery compared to vehicle control” value (topical P4 in fish oil, 30 mg P4/day) is on record as “significant delay of delivery”.

For the origin of these results see patent US10449183B2, “Methods for inhibiting preterm labor and uterine contractility disorders and preventing cervical ripening” (DIGNITY HEALTH, priority 2010, dated 2019).
